Reference: patent US10544143B2, “4-azaindole compounds” (BRISTOL-MYERS SQUIBB COMPANY, priority 2017, dated 2020)

What was measured:
human TLR9 = human TLR9 (Homo sapiens (Human), UniProt Q9NR96); assay: TLR9 inhibition reporter assay (HEK-Blue SEAP); conditions: read-out: TLR9 IC50; HEK-Blue cells overexpressing human TLR9, SEAP reporter, ODN2006 5 nM;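 also: SEAP driven by an IFN-β minimal promoter with NF-κB and AP-1 sites, read after 22 h, compounds dosed 0.05 nM–50 µM, inhibition scaled between agonist plus DMSO and reference-inhibitor wells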
Protocol: (§1) HEK-Blue™-cells (Invivogen) overexpressing human TLR7, TLR8 or TLR9 receptors were used for screening inhibitors of these receptors using an inducible SEAP (secreted embryonic alkaline phosphatase) reporter gene under the control of the IFN-β minimal promoter fused to five NF-κB and AP-1-binding sites. Briefly, cells are seeded into Greiner 384 well plates (15000 cells per well for TLR7, 20,000 for TLR8 and 25,000 for TLR9) and then treated with test compounds in DMSO to yield a final dose response concentration range of 0.05 nM-50 μM. After a 30 minute compound pre-treatment at room temperature, the cells are then stimulated with a TLR7 ligand (gardiquimod at a final concentration of 7.5 μM), TLR8 ligand (R848 at a final concentration of 15.9 μM) or TLR9 ligand (ODN2006 at a final concentration of 5 nM) to activate NF-κB and AP-1 which induce the production of SEAP. After a 22 hour incubation at 37° C., 5% CO2, SEAP levels are determined with the addition of HEK-Blue™ Detection reagent (Invivogen), a cell culture medium that allows for detection of SEAP, according to manufacturer's specifications.

human TLR8 = human TLR8 (Homo sapiens (Human), UniProt Q9NR97); assay: TLR8 inhibition reporter assay (HEK-Blue SEAP); conditions: read-out: TLR8 IC50; HEK-Blue cells overexpressing human TLR8, SEAP reporter, R848 15.9 μM;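 also: SEAP driven by IFN-β minimal promoter carrying NF-κB and AP-1 sites, compounds dosed 0.05 nM to 50 µM for 22 h, inhibition scaled between agonist-plus-DMSO and reference-inhibitor wells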
Protocol: as §1

human TLR7 = human TLR7 (Homo sapiens (Human), UniProt Q9NYK1); assay: TLR7 inhibition reporter assay (HEK-Blue SEAP); format: cell-based; conditions: HEK-Blue cells overexpressing human TLR7, SEAP reporter, gardiquimod 7.5 μM
human TLR7, sequence (Q9NYK1 27-1049): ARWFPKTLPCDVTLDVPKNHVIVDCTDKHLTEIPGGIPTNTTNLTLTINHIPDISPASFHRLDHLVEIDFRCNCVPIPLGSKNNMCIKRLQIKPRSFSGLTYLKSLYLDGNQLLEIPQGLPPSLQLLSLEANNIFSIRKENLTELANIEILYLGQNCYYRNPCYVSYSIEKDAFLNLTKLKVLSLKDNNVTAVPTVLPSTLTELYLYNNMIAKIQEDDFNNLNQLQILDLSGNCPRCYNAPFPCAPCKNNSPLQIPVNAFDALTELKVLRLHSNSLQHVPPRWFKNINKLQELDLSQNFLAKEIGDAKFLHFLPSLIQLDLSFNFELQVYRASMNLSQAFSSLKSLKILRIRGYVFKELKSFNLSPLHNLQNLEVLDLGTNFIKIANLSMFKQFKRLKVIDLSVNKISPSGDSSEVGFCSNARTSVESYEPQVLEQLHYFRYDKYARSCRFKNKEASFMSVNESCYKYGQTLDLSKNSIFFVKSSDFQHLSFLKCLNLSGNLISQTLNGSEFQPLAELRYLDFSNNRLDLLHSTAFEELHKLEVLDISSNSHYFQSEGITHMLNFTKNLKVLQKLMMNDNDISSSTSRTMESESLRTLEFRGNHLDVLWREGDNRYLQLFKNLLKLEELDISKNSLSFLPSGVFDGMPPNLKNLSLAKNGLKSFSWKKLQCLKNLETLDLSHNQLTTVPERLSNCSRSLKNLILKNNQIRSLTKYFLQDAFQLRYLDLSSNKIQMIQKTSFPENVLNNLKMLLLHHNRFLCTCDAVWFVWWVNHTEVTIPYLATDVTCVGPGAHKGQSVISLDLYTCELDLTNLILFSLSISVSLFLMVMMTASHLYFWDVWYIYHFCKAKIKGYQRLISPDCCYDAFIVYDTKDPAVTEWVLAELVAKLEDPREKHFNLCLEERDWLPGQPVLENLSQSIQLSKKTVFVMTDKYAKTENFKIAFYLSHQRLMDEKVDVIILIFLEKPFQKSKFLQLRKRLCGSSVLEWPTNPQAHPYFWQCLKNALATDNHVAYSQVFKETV

human TLR9, sequence (Q9NR96 26-1032): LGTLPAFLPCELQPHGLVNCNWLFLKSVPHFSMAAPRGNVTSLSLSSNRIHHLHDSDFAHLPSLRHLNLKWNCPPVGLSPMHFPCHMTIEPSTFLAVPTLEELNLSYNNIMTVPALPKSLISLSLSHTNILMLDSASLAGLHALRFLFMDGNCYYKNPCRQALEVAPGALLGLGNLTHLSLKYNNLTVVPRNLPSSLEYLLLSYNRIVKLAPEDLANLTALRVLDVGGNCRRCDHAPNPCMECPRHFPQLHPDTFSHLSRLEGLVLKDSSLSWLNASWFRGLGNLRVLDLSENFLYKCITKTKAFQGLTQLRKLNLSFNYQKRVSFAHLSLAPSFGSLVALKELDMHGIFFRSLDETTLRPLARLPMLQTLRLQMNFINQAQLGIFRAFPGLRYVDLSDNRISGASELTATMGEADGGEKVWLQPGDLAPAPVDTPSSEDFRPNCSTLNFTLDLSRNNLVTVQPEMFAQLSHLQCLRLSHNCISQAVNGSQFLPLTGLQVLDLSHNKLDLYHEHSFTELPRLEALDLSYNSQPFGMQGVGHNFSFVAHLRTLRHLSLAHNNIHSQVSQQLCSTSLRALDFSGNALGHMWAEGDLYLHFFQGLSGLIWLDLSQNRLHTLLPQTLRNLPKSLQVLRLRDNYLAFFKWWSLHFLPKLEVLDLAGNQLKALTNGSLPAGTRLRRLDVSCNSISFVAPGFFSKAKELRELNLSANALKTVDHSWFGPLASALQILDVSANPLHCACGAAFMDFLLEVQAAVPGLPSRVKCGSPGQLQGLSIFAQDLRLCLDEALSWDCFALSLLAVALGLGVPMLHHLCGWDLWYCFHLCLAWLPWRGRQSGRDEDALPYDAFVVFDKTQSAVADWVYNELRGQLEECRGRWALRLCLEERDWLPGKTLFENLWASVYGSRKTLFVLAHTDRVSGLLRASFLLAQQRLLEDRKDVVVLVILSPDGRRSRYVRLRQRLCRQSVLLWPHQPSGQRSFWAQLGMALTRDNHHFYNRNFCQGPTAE
human TLR8, sequence (Q9NR97 27-1041): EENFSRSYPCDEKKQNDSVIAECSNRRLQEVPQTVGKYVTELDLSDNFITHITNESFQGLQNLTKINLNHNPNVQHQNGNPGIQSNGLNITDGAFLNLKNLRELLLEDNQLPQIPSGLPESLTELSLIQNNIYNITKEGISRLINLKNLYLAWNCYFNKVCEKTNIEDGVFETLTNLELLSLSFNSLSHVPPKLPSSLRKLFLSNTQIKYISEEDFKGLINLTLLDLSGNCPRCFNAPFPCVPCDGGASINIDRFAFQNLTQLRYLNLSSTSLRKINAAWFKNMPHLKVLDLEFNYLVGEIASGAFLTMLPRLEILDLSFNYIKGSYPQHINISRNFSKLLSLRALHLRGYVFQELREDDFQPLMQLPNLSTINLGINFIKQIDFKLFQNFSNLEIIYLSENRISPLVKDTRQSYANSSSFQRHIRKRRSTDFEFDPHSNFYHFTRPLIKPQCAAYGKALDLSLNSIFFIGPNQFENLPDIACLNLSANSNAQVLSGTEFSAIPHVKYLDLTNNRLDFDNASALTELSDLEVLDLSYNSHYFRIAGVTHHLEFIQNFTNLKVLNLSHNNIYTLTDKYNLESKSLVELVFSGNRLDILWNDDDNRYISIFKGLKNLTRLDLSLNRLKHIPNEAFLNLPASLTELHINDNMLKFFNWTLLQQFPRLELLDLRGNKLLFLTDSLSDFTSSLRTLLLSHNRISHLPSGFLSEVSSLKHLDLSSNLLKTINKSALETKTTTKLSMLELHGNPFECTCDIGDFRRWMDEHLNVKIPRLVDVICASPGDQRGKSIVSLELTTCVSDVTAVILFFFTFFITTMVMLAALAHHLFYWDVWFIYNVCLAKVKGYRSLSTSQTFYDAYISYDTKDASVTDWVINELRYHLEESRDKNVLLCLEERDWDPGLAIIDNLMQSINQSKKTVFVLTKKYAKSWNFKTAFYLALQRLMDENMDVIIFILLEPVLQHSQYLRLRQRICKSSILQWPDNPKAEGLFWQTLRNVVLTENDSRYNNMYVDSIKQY

IC50 (human TLR9) [nM] | IC50 (human TLR8) [nM] | IC50 (human TLR7) [nM] | Compound
1200 | 25 | 4.6 | Cc1cc2[nH]c(-c3cc(C)c4ncnn4c3)c(C(C)C)c2nc1C1CCN(CC(C)(C)O)CC1 [Example 572]
3230 | 9.1 | 0.99 | COc1cc(-c2[nH]c3cc(F)c(C4CCN(CCS(C)(=O)=O)CC4)nc3c2C(C)C)cn2ncnc12 [Example 573]
11900 | 47 | 3 | COc1cc(-c2[nH]c3cc(F)c(C4CCN(C5COC5)CC4)nc3c2C(C)C)cn2ncnc12 [Example 574]
1350 | 121 | 0.44 | Cc1cc2[nH]c(-c3cc(C)c4ncnn4c3)c(C(C)C)c2nc1C1CCN(C2CCOCC2)CC1 [Example 575]
1880 | 7.4 | 0.69 | COc1cc(-c2[nH]c3cc(F)c(C4CCN(C(=O)CN(C)C)CC4)nc3c2C(C)C)cn2ncnc12 [Example 577]
4190 | 287 | 0.53 | Cc1cc2[nH]c(-c3cc(C)c4ncnn4c3)c(C(C)C)c2nc1C1CCN(C2COC2)CC1 [Example 578]
1840 | 79 | 0.39 | COc1cc(-c2[nH]c3cc(C)c(C4CCN(C5COC5)CC4)nc3c2C(C)C)cn2ncnc12 [Example 579]
1790 | 8.7 | 0.41 | Cc1cc(-c2[nH]c3cc(F)c(C4CCN(CC(=O)N(C)C)CC4)nc3c2C(C)C)cn2ncnc12 [Example 580]
4920 | 79 | 0.3 | Cc1cc2[nH]c(-c3cc(C)c4ncnn4c3)c(C(C)C)c2nc1C1CCN(CC(=O)N(C)C)CC1 [Example 581]
7460 | 12 | 0.99 | Cc1cc(-c2[nH]c3cc(F)c(C4CCN(CCS(C)(=O)=O)CC4)nc3c2C(C)C)cn2ncnc12 [Example 582]
1550 | 5.1 | 0.32 | COc1cc(-c2[nH]c3cc(F)c(C4CCN(CC(=O)N(C)C)CC4)nc3c2C(C)C)cn2ncnc12 [Example 583]
2010 | 29 | 0.24 | COc1cc(-c2[nH]c3cc(C)c(C4CCN(CC(=O)N(C)C)CC4)nc3c2C(C)C)cn2ncnc12 [Example 584]
1840 | 8.6 | 0.46 | Cc1cc(-c2[nH]c3cc(F)c(C4CCN(C(=O)CN(C)C)CC4)nc3c2C(C)C)cn2ncnc12 [Example 585]
2900 | 98 | 0.75 | Cc1cc2[nH]c(-c3cc(C)c4ncnn4c3)c(C(C)C)c2nc1C1CCN(C(=O)CN(C)C)CC1 [Example 586]
1410 | 27 | 0.31 | COc1cc(-c2[nH]c3cc(C)c(C4CCN(CC(C)(C)O)CC4)nc3c2C(C)C)cn2ncnc12 [Example 587]
16100 | 42 | 2.3 | Cc1cc(-c2[nH]c3cc(F)c(C4CCN(C5COC5)CC4)nc3c2C(C)C)cn2ncnc12 [Example 588]

IC50 (human TLR9) [nM] | IC50 (human TLR8) [nM] | IC50 (human TLR7) [nM] | Compound
1060 | 62 | 0.25 | COc1cc(-c2[nH]c3cc(C)c(C4CCN(C5CCOCC5)CC4)nc3c2C(C)C)cn2ncnc12 [Example 589]
3550 | 4.7 | 3 | COc1cc(-c2[nH]c3ccc(OCC4CCN(C)CC4)nc3c2C(C)C)cn2ncnc12 [Example 590, 6-(3-isopropyl-5-((1-methylpiperidin-4-yl)methoxy)-1H-pyrrolo[3,2-b]pyridin-2-yl)-8-methoxy-[1,2,4]triazolo[1,5-a]pyridine]
2850 | 7.7 | 4.8 | COc1cc(-c2[nH]c3ccc(OCC4CCN(C5CCOCC5)CC4)nc3c2C(C)C)cn2ncnc12 [Example 591, 6-(3-isopropyl-5-((1-(tetrahydro-2H-pyran-4-yl)piperidin-4-yl)methoxy)-1H-pyrrolo[3,2-b]pyridin-2-yl)-8-methoxy-[1,2,4]triazolo[1,5-a]pyridine]
2240 | 7.4 | 2.9 | COc1cc(-c2[nH]c3ccc(OCC4CN(C(C)C)C4)nc3c2C(C)C)cn2ncnc12 [Example 592, 6-(3-isopropyl-5-((1-isopropylazetidin-3-yl)methoxy)-1H-pyrrolo[3,2-b]pyridin-2-yl)-8-methoxy-[1,2,4]triazolo[1,5-a]pyridine]
974 | 2.6 | 1.4 | CCCN1CCC(Oc2ccc3[nH]c(-c4cc(OC)c5ncnn5c4)c(C(C)C)c3n2)CC1 [Example 593, 6-(3-isopropyl-5-((1-propylpiperidin-4-yl)oxy)-1H-pyrrolo[3,2-b]pyridin-2-yl)-8-methoxy-[1,2,4]triazolo[1,5-a]pyridine]
7910 | 16 | 3.9 | Cc1cc(-c2[nH]c3ccc(OC4CCN(C)CC4)nc3c2C(C)C)cn2ncnc12 [Example 594, 6-(3-isopropyl-5-((1-methylpiperidin-4-yl)oxy)-1H-pyrrolo[3,2-b]pyridin-2-yl)-8-methyl-[1,2,4]triazolo[1,5-a]pyridine]
10900 | > 3120 | 122 | COc1cc(-c2[nH]c3ccc(OC4CN(C5CCOCC5)C4)nc3c2C(C)C)cn2ncnc12 [Example 595, 6-(3-isopropyl-5-((1-(tetrahydro-2H-pyran-4-yl)azetidin-3-yl)oxy)-1H-pyrrolo[3,2-b]pyridin-2-yl)-8-methoxy-[1,2,4]triazolo[1,5-a]pyridine]
3200 | 67 | 13 | COc1cc(-c2[nH]c3ccc(OC4CN(C)C4)nc3c2C(C)C)cn2ncnc12 [Example 596, 6-(3-isopropyl-5-((1-methylazetidin-3-yl)oxy)-1H-pyrrolo[3,2-b]pyridin-2-yl)-8-methoxy-[1,2,4]triazolo[1,5-a]pyridine]
918 | 1.2 | 1.3 | COc1cc(-c2[nH]c3ccc(OCC4CCN(CC(C)(C)O)CC4)nc3c2C(C)C)cn2ncnc12 [Example 597, 1-(4-(((3-isopropyl-2-(8-methoxy-[1,2,4]triazolo[1,5-a]pyridin-6-yl)-1H-pyrrolo[3,2-b]pyridin-5-yl)oxy)methyl)piperidin-1-yl)-2-methylpropan-2-ol]
949 | 3.1 | 0.81 | COc1cc(-c2[nH]c3ccc(OCC4CCN(C(C)C)CC4)nc3c2C(C)C)cn2ncnc12 [Example 598, 6-(3-isopropyl-5-((1-isopropylpiperidin-4-yl)methoxy)-1H-pyrrolo[3,2-b]pyridin-2-yl)-8-methoxy-[1,2,4]triazolo[1,5-a]pyridine]
3050 | 4.8 | 2.7 | COc1cc(-c2[nH]c3ccc(OCC4CN(CC(C)(C)O)C4)nc3c2C(C)C)cn2ncnc12 [Example 599]
2050 | 6.2 | 0.75 | COc1cc(-c2[nH]c3ccc(OC4CCN(C)CC4)nc3c2C(C)C)cn2ncnc12 [Example 600, 6-(3-isopropyl-5-((1-methylpiperidin-4-yl)oxy)-1H-pyrrolo[3,2-b]pyridin-2-yl)-8-methoxy-[1,2,4]triazolo[1,5-a]pyridine]
> 50000 | 46 | 46 | COc1ccc2[nH]c(-c3cc(OC)c4ncnn4c3)c(C(C)C)c2n1 [Example 601, 6-(3-isopropyl-5-methoxy-1H-pyrrolo[3,2-b]pyridin-2-yl)-8-methoxy-[1,2,4]triazolo[1,5-a] pyridine]
1430 | 6.8 | 1.2 | COc1cc(-c2[nH]c3ccc(OCC4CCN(CC(=O)N(C)C)CC4)nc3c2C(C)C)cn2ncnc12 [Example 602, 2-(4-(((3-isopropyl-2-(8-methoxy-[1,2,4]triazolo[1,5-a]pyridin-6-yl)-1H-pyrrolo[3,2-b]pyridin-5-yl)oxy)methyl)piperidin-1-yl)-N,N-dimethylacetamide]
5910 | 2.5 | 2.8 | COc1cc(-c2[nH]c3ccc(OCC4CCN(CCS(C)(=O)=O)CC4)nc3c2C(C)C)cn2ncnc12 [Example 604, 6-(3-isopropyl-5-((1-(2-(methylsulfonyl)ethyl)piperidin-4-yl)methoxy)-1H-pyrrolo[3,2-b]pyridin-2-yl)-8-methoxy-[1,2,4]triazolo[1,5-a]pyridine]
1710 | 3.9 | 2.3 | CCCN1CCC(COc2ccc3[nH]c(-c4cc(OC)c5ncnn5c4)c(C(C)C)c3n2)CC1 [Example 606, 6-(3-isopropyl-5-((1-propylpiperidin-4-yl)methoxy)-1H-pyrrolo[3,2-b]pyridin-2-yl)-8-methoxy-[1,2,4]triazolo[1,5-a]pyridine]

Compound | IC50 (human TLR9) [nM] | IC50 (human TLR8) [nM] | IC50 (human TLR7) [nM]
COc1cc(-c2[nH]c3ccc(OC4CCN(C(C)C)CC4)nc3c2C(C)C)cn2ncnc12 [Example 603, 6-(3-isopropyl-5-((1-isopropylpiperidin-4-yl)oxy)-1H-pyrrolo[3,2-b]pyridin-2-yl)-8-methoxy-[1,2,4]triazolo[1,5-a]pyridine] | 1190 | 5.2 | 1.5
COc1cc(-c2[nH]c3ccc(OC4CCN(C5CCOCC5)CC4)nc3c2C(C)C)cn2ncnc12 [Example 607, 6-(3-isopropyl-5-((1-(tetrahydro-2H-pyran-4-yl)piperidin-4-yl)oxy)-1H-pyrrolo[3,2-b]pyridin-2-yl)-8-methoxy-[1,2,4]triazolo[1,5-a]pyridine] | 1140 | 2.6 | 2.1
COc1cc(-c2[nH]c3ccc(OCC4CN(C)C4)nc3c2C(C)C)cn2ncnc12 [Example 608, 6-(3-isopropyl-5-((1-methylazetidin-3-yl)methoxy)-1H-pyrrolo[3,2-b]pyridin-2-yl)-8-methoxy-[1,2,4]triazolo[1,5-a]pyridine] | 1710 | 6.1 | 1.1
